One data set deals with HRV serotype-14. Kind of data set: Antirhinoviral HI-HeLa Cell Culture Assay (XTT cell protection), HRV-14. It is filed as cell-based, human rhinovirus. To be noted: HRV serotype-14, HI-HeLa cells. Here is the method: (§1) In the Cell Protection Assay, the ability of compounds to protect cells against HRV infection was measured by the XTT dye reduction method. This method is described in Weislow, O. S., Kiser, R., Fine, D. L., Bader, J., Shoemaker, R. H., Boyd, M. R., J. Natl. Cancer Inst. 1989, 81, 577-586, the disclosure of which is incorporated herein by reference.
(§2) Infected or mock-infected cells were suspended at 8×10^5 cells per mL and incubated with appropriate concentrations of compounds of formula I. Two days later, XTT/PMS was added to test plates, and the amount of formazan produced was quantified spectrophotometrically at 450/650 nm. […] The therapeutic index (TI) was calculated by dividing the CC50 by the EC50.
(§3) All strains of human rhinovirus (HRV) for use in this assay were purchased from American Type Culture Collection (ATCC) except for HRV serotype-14, which was produced from the infectious cDNA clone constructed and supplied to Applicants by Dr. Robert Rueckert at the Institute for Molecular Virology, University of Wisconsin, Madison, Wis. HRV stocks were propagated, and viral assays were performed in HI-HeLa cells (ATCC). Cells were grown in Minimal Essential Medium, available from Life Technologies, with 10% fetal bovine serum.
(§4) The compounds were tested against control compounds WIN 51711, WIN 52084, and WIN 54954, all obtained from Sterling-Winthrop Pharmaceuticals, and control compound Pirodavir, obtained from Janssen Pharmaceuticals. Antiviral data obtained for the test compounds are shown in Table 2 where all data are for HRV serotype-14 unless otherwise noted in parentheses.

The subject of another data set is HRV serotype 1A. Kind of data set: Antirhinoviral HI-HeLa Cell Culture Assay (XTT cell protection), HRV serotype 1A. It is filed as cell-based, human rhinovirus. To be noted: HI-HeLa cells. The protocol:
as §1, §2, §3, §4

The subject of the next data set is HRV serotype 16. Kind of data set: Antirhinoviral HI-HeLa Cell Culture Assay (XTT cell protection), HRV serotype 16. It is filed as cell-based, human rhinovirus. The note with it: HRV serotype 16, HI-HeLa cells. The protocol:
as §1, §2
(§5) All strains of human rhinovirus (HRV) for use in this assay were purchased from American Type Culture Collection (ATCC) except for HRV serotype-14, which was produced from the infectious cDNA clone constructed and supplied to Applicants by Dr. Robert Rueckert at the Institute for Molecular Virology, University of Wisconsin, Madison, Wis. HRV stocks were propagated, and viral assays were performed in HI-HeLa cells (ATCC). Cells were grown in Minimal Essential Medium, available from Life Technologies, with 10% fetal bovine serum. […]

The subject of another data set is HRV serotype 10. The experiment in a line: Antirhinoviral HI-HeLa Cell Culture Assay (XTT cell protection), HRV serotype 10. It is filed as cell-based, human rhinovirus. To be noted: HRV serotype 10, HI-HeLa cells. Here is the method: as §1, §2, §3, §4
A further data set deals with HI-HeLa cells. The experiment in a line: Cytotoxicity (CC50) in mock-infected HI-HeLa cells, antirhinoviral assay. It is filed as cell-based.
For the next data set, the system named is HRV serotype 39. Kind of data set: Antirhinoviral HI-HeLa Cell Culture Assay (XTT cell protection), HRV serotype 39. The note with it: HRV serotype 39, HI-HeLa cells. It is filed as cell-based, human rhinovirus. The protocol:
as §1, §2, §5

For a further data set, the system named is HRV serotype 2. Kind of data set: Antirhinoviral HI-HeLa Cell Culture Assay (XTT cell protection), HRV serotype 2. It is filed as cell-based, human rhinovirus. To be noted: HRV serotype 2, HI-HeLa cells. The protocol:
as §1, §2, §3, §4

Each structure is given as a SMILES string. Where only a bound is given, the exact number is not on record here.

As for `CCOC(=O)/C=C/C(CCC(N)=O)NC(=O)C(CC(=O)C(NC(=O)SC1CCCC1)C(C)C)Cc1ccc(C)cc1` [Compound 11, Ethyl-3-(CyPentylSCO-L-ValΨ[COCH2]-L-(p-CH3)Phe-L-Gln)-E-Propenoate], the EC50 in the data set on HRV serotype-14 is 6 nM; with HRV serotype 1A, 160 nM; in the data set with HRV serotype 16, 25 nM; with HRV serotype 10, 60 nM; in the data set with HRV serotype 39 it was 130 nM; with HRV serotype 2 it was 120 nM. Moreover, the half-maximal cytotoxic concentration (CC50) in the data set with HI-HeLa cells (line of HRV serotype 1A), with HI-HeLa cells (line of HRV serotype 2), in the data set on HI-HeLa cells (line of HRV serotype 10), with HI-HeLa cells (line of HRV serotype 16), with HI-HeLa cells (line of HRV serotype 39) and with HI-HeLa cells (line of HRV serotype-14) was above 3000 nM each time.

Source of the values: patent US6649639B2, “Antipicornaviral compounds, compositions containing them, and methods for their use” (priority 1997, dated 2003).
